Data on eleven compounds can be found in PubChem BioAssay (NCI).

Common to all, as to assay: NCI anticancer screen, dose series, 48 h
For experiment [1], the system named is RPMI-8226 leukemia.
In experiment [2] the test system is HCC-2998 colon.
The test system of experiment [3] is HL-60(TB) leukemia.
Experiment [4] deals with OVCAR-5 ovarian.
In experiment [5] the test system is UO-31 renal.
Experiment [6] relates to SNB-19 CNS.
Experiment [7] deals with EKVX NSCLC.
Experiment [8] concerns SN12C renal.
The test system of experiment [9] is T-47D breast.
In experiment [10] the test system is A549 NSCLC.

SMILES strings stand for the structures.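 Compound exposure: 48 hours, 5 concentrations, 96-well plates. TGI: concentration producing complete growth inhibition.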 Bounds are passed on as bounds.

For the compound `C=C(COC(=O)C(C)C)[C@H]1Oc2ccc(C(C)=O)cc2[C@@H]1OC(=O)C(C)C`, the TGI in experiment [1], in experiment [2], in [3], in experiment [4], in [5] and in experiment [6] was > 100 µM in each case. Further, the TGI in [7], in experiment [8], in [9] and in experiment [10] was > 100 µM throughout.

For `C1=C[C@]2(CCC13OCCO3)COc1ccccc12`, the TGI was > 100 µM in experiment [1]; > 100 µM in experiment [2]; 38.4 µM in [3]; > 100 µM in [4]; > 100 µM in experiment [5]; > 100 µM in [6]. The TGI in experiment [7], in experiment [8], in experiment [9] and in experiment [10] was > 100 µM throughout.

Regarding `CC1CN=C(N(C)C(=O)Nc2ccc(Cl)c(Cl)c2)S1` (stereo not given), the TGI in [1] was > 100 µM; in [2], > 100 µM; in experiment [3] it was 57.1 µM; in experiment [4] it was 89.9 µM; in [5], > 100 µM; in experiment [6], > 100 µM. In addition, the TGI in experiment [7], in experiment [8], in experiment [9] and in experiment [10] was > 100 µM throughout.

With `CN(C)/C=N/S(=O)(=O)c1nn2c(C=O)c(-c3cc4ccccc4oc3=O)nc2s1`, the TGI in [1] was 30.4 µM; in experiment [2], 48.5 µM; in experiment [3], 4.05 µM; in experiment [4] it was > 84.3 µM; in experiment [5], 4.84 µM; in [6], > 100 µM. Besides, the TGI in [7] was 43 µM; in experiment [8], 24.5 µM; in experiment [9], 18.6 µM; in experiment [10], > 63.5 µM.

As to `Cc1ccc(CC(=O)Nc2ccc(NC(=O)CNC(=O)/C=C/c3ccc(-c4ccccc4)cc3)cc2C(=O)c2ccccc2)cc1`, the TGI in experiment [1] worked out at 29.2 µM; in experiment [2] it was 4.98 µM; in experiment [3], 20.7 µM; in experiment [4] it was 23.1 µM; in [5], 24.7 µM; in [6], 20.3 µM. Moreover, the TGI in experiment [7] was determined as 15.8 µM; in experiment [8], 9.93 µM; in [9], 3.89 µM; in [10] it was 5.37 µM.

Regarding `Cc1csc2n(C)c(=O)c3ccccc3[n+]12`, the TGI in [1], in experiment [2], in [3], in experiment [4], in experiment [5] and in experiment [6] was > 100 µM throughout. Further, the TGI in [7], in [8], in experiment [9] and in experiment [10] was > 100 µM in each case.

For the compound `COc1cc(C2c3cc4c(cc3OC(N3CCOCC3)C2C)OCO4)cc(OC)c1OC(C)=O` (stereo not given), the TGI in [1] is > 100 µM; in [2], 50.5 µM; in experiment [3], > 59 µM; in [4], > 100 µM; in experiment [5] it was > 100 µM; in [6], > 46.4 µM. Besides, the TGI was > 100 µM in experiment [7], > 84.2 µM in [8], > 81.8 µM in experiment [9] and > 100 µM in experiment [10].

On to `O=[N+]([O-])c1ccc(-[n+]2ccc3ccccc3c2)c([N+](=O)[O-])c1`, for which the TGI in [1] is 6.68 µM; in experiment [2], 26.7 µM; in experiment [3] it was 3.71 µM; in [4], 23.9 µM; in [5] it was 9.28 µM; in [6], 34.7 µM. Further, the TGI in experiment [7] turned out to be 19.4 µM; in [8], 6.82 µM; in [9], 4.35 µM; in [10], 34.1 µM.

With `c1csc(-c2nnc(C34CC5CC(CC(C5)C3)C4)o2)c1`, the TGI was 77.5 µM in experiment [1]; > 100 µM in experiment [2]; 33.5 µM in experiment [3]; > 100 µM in [4]; 15.6 µM in experiment [5]; > 100 µM in [6]. Also, the TGI in experiment [7], in [8], in [9] and in experiment [10] was > 100 µM in each case.

As to `O=C(O)C(CO)NC(=O)C1C(C(=O)O)C(c2ccccc2[N+](=O)[O-])C=C(c2ccco2)N1c1ccncc1` (stereo not given), the TGI was 4.22 µM in experiment [1]; 9.13 µM in experiment [2]; > 100 µM in experiment [3]; 25.4 µM in [4]; 10.4 µM in experiment [5]; 24.5 µM in [6]. Also, the TGI is 32.7 µM in experiment [7], 25.4 µM in experiment [8], 23.9 µM in experiment [9] and 11.1 µM in [10].

In the case of `OC1(c2ccc(Cl)cc2)c2ccccc2C2=NCc3ccccc3CN21` (stereo not given), the TGI in experiment [1] is > 48.6 µM; in experiment [2] it was 5.13 µM; in [3] it was 17.4 µM; in experiment [4], 26 µM; in [5] it was 22.3 µM; in [6], 13.4 µM. Further, the TGI in experiment [7] is 20.6 µM; in experiment [8] it was > 52.4 µM; in experiment [9] it was > 61.7 µM; in experiment [10] it was 19.2 µM.
